Like-named read-outs stand apart in the source and are kept apart here.
Assays:
Experiment in all cases: Herbicidal effect test under submerged conditions, inhibition ratio (Test Example 6)
Assay type in all cases: in vivo
Monochoria vaginalis = conditions: Pontederia vaginalis, 504 h, read-out: inhibition ratio (%), C (Monochoria vaginalis); for pest or weed control at 2 g/ha: dosage 2 g/ha
Description: (§1) [Test Example 6] Herbicidal effect test under submerged conditions
(§2) In a 1/5,000-are Wagner pot was filled alluvial soil, which was mixed with water introduced therein to establish submerged conditions at a water depth of 4 cm. After seeds of Monochoria vaginalis and Scirpus juncoides were sowed mixedly in the pot, 2.5 leaf stage rice seedlings were transplanted at a depth of 2 cm. On the next day of transplantation of the rice, the compound of the present invention prepared according to one of Composition Examples was applied. Three weeks after the treatment, the live weights of aerial parts of each kind of the weeds and rice were measured and inhibition ratios (%) were obtained according to Test Example 4. In the tables, (E) indicates expected values obtained by the equation of Colby and (F) indicates found values. Left side values and right side values in the column of application rate for each active ingredient indicate corresponding dosages of compounds in the column of compound name.
(§3) Synergistic herbicidal effect of herbicide mixtures will be explained as follows. That is, individual active compounds in many cases may be deficient in their herbicidal activity. In such a case, if the herbicidal activity of two active compounds in combination is higher than the simple sum of the activities of the compounds (expected activity), then this is called synergistic action. The expected activity from the stable combination of two herbicides, can be calculated as follows. (cf. Colby, S. R., Calculation of Synergistic and Antagonistic Reactions of Combination of Herbicides, Weed, vol. 15, pages 20-22 (1967)) E = α + β - ( α · β / 100) [formula] α : Inhibition ratio when herbicide A is applied in a rate of a kg/ha β : Inhibition ratio when herbicide B is applied in a rate of b kg/ha E : Inhibition ratio expected when herbicide A is applied in a rate of a kg/ha and herbicide B is applied in a rate of b kg/ha.

Scirpus juncoides = conditions: Schoenoplectiella juncoides, 504 h, read-out: inhibition ratio (%), B (Scirpus juncoides); for pest or weed control at 2 g/ha: dosage 2 g/ha
Description: as §1, §2, §3

transplanted rice = conditions: dosage 4 g/ha; live weight of aerial part, three weeks after the treatment
Description: Herbicidal effect test under submerged conditions
In a 1/5,000-are Wagner pot was filled alluvial soil, which was mixed with water introduced therein to establish submerged conditions at a water depth of 4 cm. After seeds of Monochoria vaginalis and Scirpus juncoides were sowed mixedly in the pot, 2.5 leaf stage rice seedlings were transplanted at a depth of 2 cm. On the next day of transplantation of the rice, the compound of the present invention prepared according to one of Composition Examples was applied. […] In the tables, (E) indicates expected values obtained by the equation of Colby and (F) indicates found values.
The expected activity from the stable combination of two herbicides, can be calculated as follows.

[1] = live weight of aerial part, three weeks after the treatment
[2] = dosage 4 g/ha, live weight of aerial part, three weeks after the treatment

Row | Compound | pest or weed control at 2 g/ha (Monochoria vaginalis; [1]) | pest or weed control at 2 g/ha (Scirpus juncoides; [1]) | pest or weed control at 4 g/ha (Monochoria vaginalis; [2]) | pest or weed control at 4 g/ha (Scirpus juncoides; [2]) | inhibition ratio (%), a (transplanted rice) (transplanted rice) | also measured
1 | COc1cc(OC)nc(NC(=O)NS(=O)(=O)c2c(-c3nnn(C)n3)cnn2C)n1 [R-5, azimsulfuron] | 75% | 61% |  |  |  | 
2 | COc1cc(OC)nc(NC(=O)NS(=O)(=O)Nc2ccccc2C(=O)C2CC2)n1 [R-6, cyclosulfamuron] |  |  | 77% | 78% | 0% | 
3 | CCOc1ccccc1OS(=O)(=O)NC(=O)Nc1nc(OC)cc(OC)n1 [R-7, ethoxysulfuron] | 63% | 72% |  |  |  | 
4 | COCCOc1ccccc1S(=O)(=O)NC(=O)N=c1nc(OC)[nH]c(OC)n1 [R-8, cinosulfuron] |  |  |  |  | 0% | pest or weed control at 4 g/ha (Monochoria vaginalis): 69%; pest or weed control at 4 g/ha (Scirpus juncoides): 70%
5 | COC(=O)c1ccccc1CS(=O)(=O)NC(=O)Nc1nc(OC)cc(OC)n1 [R-9, bensulfuron methyl] |  |  | 69% | 68% |  | 

Source: patent EP0976707A1, “CYCLOALKYL BENZYL ETHER COMPOUNDS” (Nissan Chemical Industries, Ltd., priority 1997, dated 1998)
